The test system of experiment [1] is Normal human gastric cells (NHGC). Nature of the experiment: WST-1 colorometric assay, chemoprotection against BR96-dox toxicity (Example 4). Type of experiment: cell-based. The conditions noted are these: for chemoprotection against BR96-dox toxicity: first test: drug and chemoprotectant co-incubated for 2-3 days. On the procedure: Normal human gastric cells (NHGC) express high levels of the LewisY antigen recognized by the BR96 monoclonal antibody. BR-96 and BR-96-Dox toxicity was examined in NHGC to determine if toxicity could be protected against with thiol chemoprotectants.
(§1) Cytotoxicity is determined as the proportion of live cells, in comparison to untreated controls, using the WST-1 colorometric assay available from Roche Diagnostics, Indianapolis, Ind.
(In general: Formazan colour is commonly taken as a measure of viable cells.)

For experiment [2] the following is noted: Brizel DM, J Clin Oncol 2000; cited from earlier work.
Another experiment relates to LX-1 cells. Nature of the experiment: Chemoprotection in LX-1 cells (Example 4). Conditions: low dosages, about 0.2 to about 0.5 mg/ml. Type of experiment: cell-based. On the procedure: as §1
Low dosages, about 0.2 to about 0.5 mg/ml, of NAC were protective against alkylators in LX-1 cells. NAC was 10-90% chemoprotective of NHGC at high dosages, such as from about 1-5 mg/ml.

Experiment [3] in a line: Weight loss in Long Evans rats 7 days after cisplatin to the aorta, 15 minutes after i.v. saline or NAC (Example 5). It counts as in vivo. Conditions: cisplatin 6 mg/kg via right external carotid artery cannula; NAC 400 mg/kg i.v. 15 minutes before; n=8 per group. On the procedure:
Before the study began, the rats were weighed to establish a baseline. Long Evans rats were treated with cisplatin 6 mg/kg delivered to the aorta via a right external carotid artery cannula 15 minutes after intravenous infusion of saline (n=8) or NAC 400 mg/kg (n=8). This procedure was preformed by the rats being induced with isoflurane inhalant (2%+1.5% oxygen), intubated, placed on a respirator and prepped for surgery. Isoflurane was then replaced with propofol (800 μg/kg/min i.v.) and a 50% nitrous/50% oxygen mixture. A ventral midline incision was made from mandible to manubrium. The right carotid bifurcation was exposed and freed, and the right external carotid artery was cannulated. NAC (400 mg/kg) was then given to the treated group (n=8) and i.v. saline was given to the untreated group (n=8). After 15 minutes, the right internal carotid artery was clamped and cisplatin (6 mg/kg) was rapidly infused through the external carotid catheter. The cannula was removed and the skin incisions were closed using 4-0 Vicryl in a simple continuous pattern. Health and well being were monitored daily post-surgery. After seven days, the animals were weighed and this value compared to the baseline.

The next experiment concerns GM294 human fibroblasts. Nature of the experiment: WST colorometric cytotoxicity assay, chemoprotection with or without BSO cytoenhancement (Example 3). It counts as cell-based. Conditions: NAC 1000 μg/ml added immediately after melphalan, cisplatin, carboplatin or etoposide phosphate; with or without 100 μM BSO pretreatment. On the procedure: Cytotoxicity was assessed in GM294 human fibroblasts, 1×10^4 cells per well in 96 well plates, using the WST colorometric assay. Cells were pretreated with or without BSO, 100 μM for 18 hours prior to addition of chemotherapeutics (melphalan=10 μg/ml, carboplatin=100 μg/ml, cisplatin=7.5 μg/ml, etoposide phosphate 100 μg/ml) either alone (open bar), or with NAC rescue, (1000 μg/ml N-acetylcysteine, striped bar), BSO cytoenhancement (black bar), or BSO cytoenhancement and NAC rescue (cross hatched bar). Data are expressed as the percentage of live cells compared to control samples (without chemotherapy) and each point represents the mean±s.d. of 4 wells. This was also repeated with normal human gastric cells (NHGC) and gastric epithelial cells.
The fibroblast cells were either preincubated or not preincubated with 100 μM BSO for about 18-24 hours prior to addition of chemotherapy, and rescue consisted of 1000-2000 μg/ml of a thiol anti-mucosal injury agent added immediately after chemotherapy. […] Protection of epithelia cells allows for the prevention and treatment of mucositis of these tissues.

The nature of experiment [4]: Weight loss and diarrhea in Long Evans rats seven days after intra-arterial Cisplatin with or without i.v. NAC (Example 1). Type of experiment: in vivo. The conditions noted are these: Cisplatin 6 mg/kg intra-arterially. On the procedure: The graph shown as FIG. 1 represents the weight loss in grams in Long Evans rats seven days after administration of Cisplatin and NAC. Six mg/kg of Cisplatin was given intra-arterially either with or without intravenous (i.v.) administration of NAC at a dosage of 400 mg/kg. The NAC was administered about 15 minutes prior to the Cisplatin administration. The group without NAC consisted of 11 members. The NAC-treated group consisted of 8 members.
In the method of Example 1 for Cisplatin, the Long Evans rats were weighed, induced with isoflurane inhalant (2%+1.5% O2), intubated, placed on a respirator, and prepped for surgery. Isoflurane was then replaced with propofol (800 ug/kg/min i.v.) and a 50% nitrous/50% oxygen mixture. A ventral midline incision was made from mandible to manubrium. The left carotid bifurcation was exposed and freed, and the left external carotid artery was cannulated. NAC was then given intravenously to the treated group and intravenous saline was given to the untreated group. After 15 minutes, the left internal carotid artery was clamped, and Cisplatin (6 mg/kg) was infused through the external carotid catheter. The cannula was removed, and the skin incisions were closed using 4-0 Vicryl in a simple continuous pattern.
Seven days after Cisplatin infusion, the rats were weighed. These body weights were compared to those taken before surgery. […] This is correlated with renal failure and/or mucositis in the untreated group.

For a further experiment, the system named is LX-1 SCLC. Nature of the experiment: Weight loss and survival in nude rats 12 days after intracerebral inoculation with LX-1 SCLC cells, with or without oral TMZ (Example 2). It counts as in vivo. On the procedure:
TMZ was given at a dosage of 5 mg orally, once daily, on days 6-11. There were 10 members in the untreated group and seven members in the group treated with TMZ.
For the intracerebral inoculations, the nude rats were anesthetized with a mixture of intraperitoneal ketamine (60 mg/kg) and diazepam (7.5 mg/kg). The head was shaved and scrubbed with Betadine, a midline incision made, and a 2 mm burr hole using stereotaxic coordinates was made. A 27 g needle was used for inoculation with a 100 ul Hamilton syringe, placed […] ventral to the surface, deep in the right caudate putamen. Inoculants used were LX-1 SCLC. The needle was withdrawn and the incision closed with wound clips. One group of rats received no treatment, while the other group received oral 5 mg doses of TMZ, an alkylating agent, once daily on days 6-11 after inoculation, delivered through a feeding tube while under isoflurane anesthesia. On day 12, all rats were weighed, sacrificed, and the brains removed and fixed in formalin for subsequent tumor-volume analysis.
It is believed that TMZ effects the size of any lesions in the brain. The TMZ may decrease the size of any lesions in the brain; those animals experiencing more constant or improved appetite than animals with larger tumors which experienced appetite suppression.

The mark [5] stands for this setting: NAC 400 mg/kg i.v. 15 minutes prior.

With `O=S([O-])([O-])=S.[Na+].[Na+]` [STS, sodium thiosulfate], the “chemoprotection against BR96-dox toxicity” value in experiment [1] is listed as “No chemoprotection”.
In the case of `NCCCNCCSP(=O)(O)O` [Amifostine, amifostine], in experiment [2], the “effect on mucositis in patients undergoing radiation therapy” value is on record as “not to reduce mucositis”.
In the case of `CSCC[C@@H](N)C(=O)O` [d-Methionine, D-methionine], the “chemoprotection against BR96-dox toxicity” value in experiment [1] is reported as “No chemoprotection”.
Take `CC(=O)N[C@@H](CS)C(=O)O` [NAC, N-acetylcysteine]: the “protection against alkylators in LX-1 cells” value with LX-1 cells is reported as “protective”. The “chemoprotective of NHGC” value in experiment [1] (first test: co-incubated for 2-3 days, high dosages, about 1-5 mg/ml) was 10-90%. In addition, the “chemoprotective, pulsed treatment” value in experiment [1] (second test: 4 hour pulsed treatment with BR-96-dox and NAC) is given as 0-20%. In addition, the “weight loss after 7 days compared to control” value in experiment [3] was “less weight loss than the control”. For the same compound, the “chemoprotection of fibroblast cells (percentage of live cells)” value with GM294 human fibroblasts was “protective effect”. In experiment [4] (setting [5]), the “diarrhea, group without NAC compared to NAC treated group” value is given as “greater diarrhea than the NAC treated group”; the “subjective condition of untreated rats compared to NAC-treated group” value is “more depressed, cachexic, and dehydrated than the NAC-treated group”. The “loss of body weight after 7 days, group without NAC compared to NAC-treated group” value in experiment [4] (NAC 400 mg/kg i.v. about 15 minutes prior, unpaired t-test p<0.0002) is on record as “significantly larger loss of body weight”.
On to `Cn1nnc2c(C(N)=O)ncn2c1=O` [TMZ, Temazolamide], for which, in the experiment with LX-1 SCLC (TMZ 5 mg orally once daily on days 6-11), the “subjective activity at day 12 compared to untreated group” value is “more active and responsive”. In the experiment with LX-1 SCLC (TMZ 5 mg orally once daily on days 6-11, three rats without TMZ did not survive to day 12), the “survival to day 12” value is “all of the TMZ rats survived to day 12”. Further, the “loss of body weight at day 12, group without TMZ compared to group treated with TMZ” value in the experiment on LX-1 SCLC (TMZ 5 mg orally once daily on days 6-11 after inoculation, unpaired t-test p<0.0041) is recorded as “significantly higher loss of body weight”.
With `CCOC(=O)CNC(=O)[C@H](CS)NC(=O)CC[C@H](N)C(=O)O` [GSH ethyl ester, glutathione ethyl ester], in experiment [1], the “chemoprotection against BR96-dox toxicity” value is on record as “No chemoprotection”.
